The values that follow come from patent publication US10004732B2 (Novartis AG, priority 2014, dated 2018).

For one data set, the target named is PI 3-kinase beta (Homo sapiens, UniProt P42338). Briefly: Kinase Glo Luminescent Kinase Assay (Kglo), assay B. Format: biochemical. To be noted: read-out: Assay B PI3Kβ IC50. For orientation: Kinase-Glo measures the ATP left after a reaction by luminescence.
Another data set concerns the target PI 3-kinase delta (Homo sapiens, UniProt O00329). Put plainly: TR-FRET Adapta assay, assay F. The note with it: read-out: Assay F PI3Kδ IC50. For orientation: Time-resolved FRET reads energy transfer from a long-lived donor to a nearby acceptor.
The next data set addresses PI 4-kinase beta (Homo sapiens, UniProt Q9UBF8). Put plainly: Kinase Glo Luminescent Kinase Assay (Kglo), assay D. In kind it is biochemical. To be noted: read-out: Assay D PI4Kβ IC50.
Another data set deals with Vps34 (Homo sapiens, UniProt Q8NEB9). Put plainly: Kinase Glo Luminescent Kinase Assay (Kglo), assay C. The note with it: read-out: Assay C VPS34 IC50. Format: biochemical.
Chain of Vps34 (Q8NEB9 whole entry, species assumed): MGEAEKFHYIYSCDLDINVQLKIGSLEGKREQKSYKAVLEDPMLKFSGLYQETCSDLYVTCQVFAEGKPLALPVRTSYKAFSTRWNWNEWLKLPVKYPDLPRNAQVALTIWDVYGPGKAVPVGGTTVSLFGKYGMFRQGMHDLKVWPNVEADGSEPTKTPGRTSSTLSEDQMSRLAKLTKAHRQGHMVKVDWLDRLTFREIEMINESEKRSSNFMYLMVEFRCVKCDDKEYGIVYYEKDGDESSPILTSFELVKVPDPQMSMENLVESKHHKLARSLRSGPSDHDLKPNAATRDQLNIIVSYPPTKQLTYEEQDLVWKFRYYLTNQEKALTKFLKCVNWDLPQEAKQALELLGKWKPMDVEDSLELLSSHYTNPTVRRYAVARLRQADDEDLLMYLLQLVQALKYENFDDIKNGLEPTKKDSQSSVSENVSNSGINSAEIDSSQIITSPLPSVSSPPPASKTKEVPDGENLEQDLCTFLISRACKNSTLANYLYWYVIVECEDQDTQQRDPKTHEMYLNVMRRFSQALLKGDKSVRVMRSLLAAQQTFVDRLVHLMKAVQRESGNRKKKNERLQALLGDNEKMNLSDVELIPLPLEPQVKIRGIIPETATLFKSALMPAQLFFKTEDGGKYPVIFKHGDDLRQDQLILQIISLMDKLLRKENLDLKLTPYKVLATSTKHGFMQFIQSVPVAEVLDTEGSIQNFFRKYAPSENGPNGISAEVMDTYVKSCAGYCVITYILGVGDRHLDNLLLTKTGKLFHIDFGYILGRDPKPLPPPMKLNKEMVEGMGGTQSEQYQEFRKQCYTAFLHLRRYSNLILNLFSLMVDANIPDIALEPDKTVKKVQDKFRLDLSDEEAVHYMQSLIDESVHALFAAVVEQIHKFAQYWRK
The next data set has as its target PI 3-kinase gamma (Homo sapiens, UniProt P48736). Put plainly: TR-FRET Adapta assay, assay E. In kind it is biochemical. To be noted: read-out: Assay E PI3Kγ IC50.
Another data set has as its target PI 3-kinase alpha (Homo sapiens, UniProt P42336). Put plainly: Kinase Glo Luminescent Kinase Assay (Kglo), assay A. Format: biochemical. To be noted: read-out: Assay A PI3Kα IC50.
The next data set addresses mTOR (Homo sapiens, UniProt P42345). Briefly: Lanthascreen kinase binding assay, assay G. To be noted: read-out: Assay G mTOR IC50.
A short description of data set [1]: Microsomal clearance assay (M).
Protocol: The experiments were performed in 96-well glass plates at 37° C. on an automated Tecan EVO platform. Test compounds at a concentration of 10 mM in pure DMSO were diluted 1:1000 in water to 10 μM. […] Reactions were initiated by the addition of 150 μL of a cofactor solution containing 2 mM NADPH.
[2] abbreviates: intrinsic clearance in rat liver microsomes.
The mark [3] stands for this setting: rat liver microsomes, intrinsic clearance.

Each structure is given as a SMILES string.

Chain of PI 3-kinase beta (P42338 whole entry): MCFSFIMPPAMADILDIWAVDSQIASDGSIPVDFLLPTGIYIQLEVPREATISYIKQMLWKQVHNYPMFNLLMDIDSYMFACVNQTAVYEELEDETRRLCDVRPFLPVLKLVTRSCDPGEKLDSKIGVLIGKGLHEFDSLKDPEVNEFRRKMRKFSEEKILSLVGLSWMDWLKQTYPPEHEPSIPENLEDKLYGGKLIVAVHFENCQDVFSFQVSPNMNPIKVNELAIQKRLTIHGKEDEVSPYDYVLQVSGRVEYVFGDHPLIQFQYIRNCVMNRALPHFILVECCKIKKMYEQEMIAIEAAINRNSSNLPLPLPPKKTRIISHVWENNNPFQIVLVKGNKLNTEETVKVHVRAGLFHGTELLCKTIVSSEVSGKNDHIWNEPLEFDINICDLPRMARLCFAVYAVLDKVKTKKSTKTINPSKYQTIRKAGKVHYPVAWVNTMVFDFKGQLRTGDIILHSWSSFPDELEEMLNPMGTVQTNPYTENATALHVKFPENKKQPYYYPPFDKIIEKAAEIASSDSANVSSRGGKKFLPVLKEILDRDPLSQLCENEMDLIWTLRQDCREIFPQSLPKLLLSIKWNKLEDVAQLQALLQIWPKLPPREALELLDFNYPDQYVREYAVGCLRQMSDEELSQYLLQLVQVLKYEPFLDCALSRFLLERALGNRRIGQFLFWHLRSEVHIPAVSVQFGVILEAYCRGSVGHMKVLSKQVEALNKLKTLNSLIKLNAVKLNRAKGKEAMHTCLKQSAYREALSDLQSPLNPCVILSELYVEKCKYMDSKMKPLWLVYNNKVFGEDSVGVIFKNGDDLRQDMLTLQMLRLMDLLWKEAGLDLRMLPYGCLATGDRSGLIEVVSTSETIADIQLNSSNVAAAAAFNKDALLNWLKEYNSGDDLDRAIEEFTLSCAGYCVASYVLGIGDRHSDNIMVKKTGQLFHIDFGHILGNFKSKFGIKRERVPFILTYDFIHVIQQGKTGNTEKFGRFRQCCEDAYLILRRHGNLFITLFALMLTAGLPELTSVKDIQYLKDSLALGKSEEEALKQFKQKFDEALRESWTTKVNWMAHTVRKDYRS
Chain of PI 3-kinase beta (P27986 461-568 partner): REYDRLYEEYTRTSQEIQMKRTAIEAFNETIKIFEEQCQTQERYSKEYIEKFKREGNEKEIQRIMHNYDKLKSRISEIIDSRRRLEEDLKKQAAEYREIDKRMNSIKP
Chain of PI 3-kinase gamma (P48736 whole entry): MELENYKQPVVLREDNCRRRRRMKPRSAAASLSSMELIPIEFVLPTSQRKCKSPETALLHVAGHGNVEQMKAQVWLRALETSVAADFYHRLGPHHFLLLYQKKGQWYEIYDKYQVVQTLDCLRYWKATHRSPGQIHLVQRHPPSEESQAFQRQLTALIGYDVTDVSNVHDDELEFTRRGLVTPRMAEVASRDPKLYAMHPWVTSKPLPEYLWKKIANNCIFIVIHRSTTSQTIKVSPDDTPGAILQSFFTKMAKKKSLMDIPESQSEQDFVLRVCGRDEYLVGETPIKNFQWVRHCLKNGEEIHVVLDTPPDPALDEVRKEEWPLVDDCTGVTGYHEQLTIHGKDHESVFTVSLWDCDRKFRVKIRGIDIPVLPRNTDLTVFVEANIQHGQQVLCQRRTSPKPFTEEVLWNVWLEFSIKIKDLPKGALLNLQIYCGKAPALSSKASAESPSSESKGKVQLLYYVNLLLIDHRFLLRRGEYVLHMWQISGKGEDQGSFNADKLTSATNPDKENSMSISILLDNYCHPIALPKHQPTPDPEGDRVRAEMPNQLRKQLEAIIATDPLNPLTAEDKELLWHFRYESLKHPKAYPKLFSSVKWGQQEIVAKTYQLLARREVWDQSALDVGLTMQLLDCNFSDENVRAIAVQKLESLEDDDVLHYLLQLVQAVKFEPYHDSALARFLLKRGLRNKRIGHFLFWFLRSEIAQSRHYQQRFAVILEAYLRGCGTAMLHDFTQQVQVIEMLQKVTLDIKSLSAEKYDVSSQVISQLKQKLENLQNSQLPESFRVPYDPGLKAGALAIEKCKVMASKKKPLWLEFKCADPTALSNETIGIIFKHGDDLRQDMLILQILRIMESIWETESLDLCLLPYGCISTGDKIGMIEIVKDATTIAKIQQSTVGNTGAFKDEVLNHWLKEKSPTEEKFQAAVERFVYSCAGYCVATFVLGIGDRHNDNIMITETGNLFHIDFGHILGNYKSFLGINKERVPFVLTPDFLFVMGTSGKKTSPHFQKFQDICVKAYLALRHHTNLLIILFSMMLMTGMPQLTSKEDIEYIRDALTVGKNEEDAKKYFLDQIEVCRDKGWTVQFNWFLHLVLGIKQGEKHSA
Chain of PI 3-kinase delta (O00329 whole entry): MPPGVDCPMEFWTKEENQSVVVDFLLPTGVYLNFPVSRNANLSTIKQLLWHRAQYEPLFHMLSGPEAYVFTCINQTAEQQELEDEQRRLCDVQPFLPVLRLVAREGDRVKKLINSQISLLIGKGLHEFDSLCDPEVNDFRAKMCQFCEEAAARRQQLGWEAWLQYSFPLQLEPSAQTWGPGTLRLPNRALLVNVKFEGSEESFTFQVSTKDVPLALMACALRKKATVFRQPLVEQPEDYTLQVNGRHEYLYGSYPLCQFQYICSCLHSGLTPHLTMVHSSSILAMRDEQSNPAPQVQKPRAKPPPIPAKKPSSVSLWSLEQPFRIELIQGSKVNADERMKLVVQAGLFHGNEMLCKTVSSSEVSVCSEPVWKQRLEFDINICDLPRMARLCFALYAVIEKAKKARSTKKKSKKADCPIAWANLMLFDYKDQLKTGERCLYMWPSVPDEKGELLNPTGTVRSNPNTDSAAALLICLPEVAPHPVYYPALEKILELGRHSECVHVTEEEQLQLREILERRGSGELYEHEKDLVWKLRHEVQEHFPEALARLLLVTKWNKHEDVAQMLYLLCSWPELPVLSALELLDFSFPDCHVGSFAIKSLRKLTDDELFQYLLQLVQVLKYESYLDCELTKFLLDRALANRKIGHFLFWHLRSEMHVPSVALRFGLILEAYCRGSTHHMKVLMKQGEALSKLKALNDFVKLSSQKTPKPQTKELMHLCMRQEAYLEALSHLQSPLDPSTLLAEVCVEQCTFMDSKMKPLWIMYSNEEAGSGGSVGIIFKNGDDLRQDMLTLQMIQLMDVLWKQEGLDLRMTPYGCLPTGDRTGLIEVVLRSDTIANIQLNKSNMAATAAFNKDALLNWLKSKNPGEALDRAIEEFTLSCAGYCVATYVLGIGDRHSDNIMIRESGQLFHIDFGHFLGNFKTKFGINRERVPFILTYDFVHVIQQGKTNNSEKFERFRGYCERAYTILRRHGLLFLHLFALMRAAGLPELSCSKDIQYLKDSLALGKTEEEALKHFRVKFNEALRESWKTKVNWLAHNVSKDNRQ
Chain of PI 3-kinase delta (P27986 461-568 partner): as the sequence (P27986 461-568 partner) above
Chain of PI 4-kinase beta (Q9UBF8 whole entry): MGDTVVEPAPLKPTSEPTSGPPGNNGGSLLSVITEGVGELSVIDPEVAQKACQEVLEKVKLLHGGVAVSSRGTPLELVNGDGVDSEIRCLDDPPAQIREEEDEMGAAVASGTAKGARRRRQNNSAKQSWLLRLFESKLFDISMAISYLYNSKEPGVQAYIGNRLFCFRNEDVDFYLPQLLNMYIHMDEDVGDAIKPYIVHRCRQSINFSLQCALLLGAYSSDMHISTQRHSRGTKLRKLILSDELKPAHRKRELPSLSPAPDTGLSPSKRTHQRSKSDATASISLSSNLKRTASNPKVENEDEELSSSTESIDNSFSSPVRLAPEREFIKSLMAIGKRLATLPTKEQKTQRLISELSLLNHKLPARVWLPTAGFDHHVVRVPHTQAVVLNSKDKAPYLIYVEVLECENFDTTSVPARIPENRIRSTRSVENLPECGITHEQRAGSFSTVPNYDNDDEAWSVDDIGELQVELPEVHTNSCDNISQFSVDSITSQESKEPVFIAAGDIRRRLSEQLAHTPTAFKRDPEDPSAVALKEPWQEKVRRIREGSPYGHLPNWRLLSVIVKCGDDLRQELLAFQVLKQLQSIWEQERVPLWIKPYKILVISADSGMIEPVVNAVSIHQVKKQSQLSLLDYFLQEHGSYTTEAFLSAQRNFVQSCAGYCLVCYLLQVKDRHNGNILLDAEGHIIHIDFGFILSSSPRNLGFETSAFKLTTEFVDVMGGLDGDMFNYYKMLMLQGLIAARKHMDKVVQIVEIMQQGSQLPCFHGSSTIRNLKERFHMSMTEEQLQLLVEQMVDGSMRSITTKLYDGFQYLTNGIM
Protocol for PI 3-kinase beta: Kinase Glo Luminescent Kinase Assay (Kglo) for Pb 3-Kinase Alpha (A), Pb 3-Kinase Beta (B), Vps34 (C), Pb 4-Kinase Beta (D)
The Kinase Glo Luminescent Kinase Assay (Promega, Madison/Wis., USA) is a homogeneous HTS method of measuring kinase activity by quantifying the amount of ATP remaining in solution following a kinase reaction.
L-α-phosphatidylinositol (PI), provided as 10 mg/ml solution in methanol, was transferred into a glass tube and dried under a nitrogen beam. It was then resuspended in 3% OctylGlucoside (1-0-n-octyl-beta-D-glucopyranoside) by vortexing and stored at 4° C. 5 μL of a mix of PI/OctylGlucoside with the PI 3-kinase alpha and PI 3-kinase beta subtypes, or Vps34 or PI 4-kinase beta were added. Kinase reactions were started by the addition of 5 μl of an ATP-mix containing in a final volume 10 μL 10 mM TRIS-HCl pH 7.5, 3 mM MgCl2, 50 mM NaCl, 0.05% CHAPS, 1 mM DTT and 1 μM ATP at room temperature.
All fits were performed with the program XLfit4 (ID Business Solutions, Guildford, UK).
Protocol for PI 3-kinase gamma: TR-FRET Adapta Assay for PI 3-Kinase Gamma (E), PI 3-Kinase Delta (F)
The TR-FRET Adapta™ Universal Kinase Assay Kit was purchased from Invitrogen Corporation (Carlsbad/CA, USA) (Cat. No. PV5099).
PIK3CD substrate phosphatidylinositol (PI) was obtained from Invitrogen (vesicules consisting of 2 mM phosphatidylinositol (PI) in 50 mM HEPES pH7.5; Cat. No. PV5371). PIK3CG substrate phosphatidylinositol-4,5-bisphosphate (PIP(4,5)2 was obtained from Invitrogen (PIP2:PS large unilamellar vesicules consisting of 1 mM PIP2: 19 mM PS in 50 mM HEPES pH7.5, 3 mM MgCl2, 1 mM EGTA; Cat. No. PV5100).
Time-Resolved Fluorescence Resonance Energy Transfer (TR-FRET) is a technology based on energy transfer between two adjacent dyes, from an excited electron in one dye (the donor) to an electron of an adjacent dye (the acceptor) through resonance, then released as a photon. This energy transfer is detected by an increase in the fluorescence emission of the acceptor, and a decrease in the fluorescence emission of the donor. TR-FRET assays for protein kinases use a long-lifetime lanthanide Terbium or Europium chelates as the donor species which overcome interference from compound autofluorescence or light scatter from precipitated compounds, by introducing a delay after excitation by a flashlamp excitation source. Results are often expressed as a ratio of the intensities of the acceptor and donor fluorophores. The ratiometric nature of such a value corrects for differences in assay volumes between wells, as well as corrects for quenching effects due to colored compounds. The Adapta™ assay can be divided into two phases: a kinase reaction phase and an ADP detection phase. In the kinase reaction phase, all kinase reaction components are added to the well and the reaction is allowed to incubate for a set period of time specific for each kinase. […] In the presence of an inhibitor, the amount of ADP formed by the kinase reaction is reduced, and the resulting intact antibody-tracer interaction maintains a high TR-FRET signal.
50 nL of compound dilutions were dispensed onto white 384-well small volume polystyrene plate. Then 5 μL of either PI 3-kinase gamma or PI 3-kinase delta and lipid substrate (PI or PIP2:PS) followed by 5 μL of ATP (final assay volume 10 μL) are incubated at RT. The standard reaction buffer for the Adapta™ TR-FRET assay contained 10 mM Tris-HCl pH 7.5, 3 mM MgCl2, 50 mM NaCl, 1 mM DTT, 0.05% CHAPS 3-[(3-cholamidopropyl)dimethylammonio]-1-propanesulfonate).
Data are analyzed using Excel fit software or Graphpad Prism. IC50 values were derived by fitting a sigmoidal dose-response curve to a plot of assay readout over inhibitor concentration. All fits were performed with the program XLfit4 (ID Business Solutions, Guildford, UK). […] All fits were performed with the program XLfit4 (ID Business Solutions, Guildford, UK).
Protocol for mTOR: Lanthascreen™ Kinase Binding Assay for mTOR (G)
Binding of an inhibitor to the kinase competes for binding with the tracer, resulting in a loss of FRET.
50 nL of compound dilutions were dispensed onto white 384-well small volume polystyrene plate.

The IC50 is the concentration needed to halve the response being measured. Regarding `Cc1cn(-c2nc(-c3cc(S(=O)(=O)NCC(C)(C)O)ccc3C)cnc2N)c(C)n1` [Example 50, 3-(5-Amino-6-(2,4-dimethyl-1H-imidazol-1-yl)pyrazin-2-yl)-N-(2-hydroxy-2-methylpropyl)-4-methylbenzenesulfonamide], the 50% inhibitory concentration (IC50) was 2.8 µM at PI 3-kinase beta; more than 10 µM at PI 3-kinase delta; more than 10 µM on PI 4-kinase beta; more than 10 µM at Vps34; 0.85 µM on PI 3-kinase gamma; 2.5 µM at PI 3-kinase alpha. Also, on mTOR, the IC50 was more than 10 µM. Also, the “Assay M RLM CI(int)” value in data set [1] (setting [2]) was determined as 28 µL/min/mg.
With `Nc1ncc(-c2ccc(Cl)c(S(=O)(=O)N[C@H]3CC[C@H](O)CC3)c2)nc1C(=O)c1cccnc1` [(v), reference compound], the Assay M RLM CI(int) in data set [1] (setting [3]) is 173 µL/min/mg.
As for `Cc1ccc(S(=O)(=O)NCC(N)=O)cc1-c1cnc(N)c(-n2cncn2)n1` [Example 133, 2-(3-(5-Amino-6-(1H-1,2,4-triazol-1-yl)pyrazin-2-yl)-4-methylphenylsulfonamido)acetamide], the IC50 at PI 3-kinase beta was 7.8 µM; on PI 3-kinase delta it was 1.14 µM; on PI 4-kinase beta, 8.9 µM; at Vps34 it was more than 9.55 µM; on PI 3-kinase gamma, 0.11 µM; at PI 3-kinase alpha, 1.02 µM. Also, the IC50 at mTOR is more than 9.55 µM. The “Assay M RLM CI(int)” value in data set [1] (setting [2]) amounted to 19 µL/min/mg.
Consider `Cc1nnc(-c2nc(-c3cc(S(=O)(=O)NCC(C)(C)O)ccc3C)cnc2N)o1` [Example 90, 3-(5-Amino-6-(5-methyl-1,3,4-oxadiazol-2-yl)pyrazin-2-yl)-N-(2-hydroxy-2-methylpropyl)-4-methylbenzenesulfonamide], for which the IC50 on PI 3-kinase beta was 0.94 µM; on PI 3-kinase delta it was 2 µM; on PI 4-kinase beta, more than 10 µM; at Vps34, more than 10 µM; on PI 3-kinase gamma, 0.078 µM; at PI 3-kinase alpha it was 2.1 µM. Moreover, on mTOR, the IC50 is more than 10 µM. For the same molecule, in data set [1] (setting [2]), the “Assay M RLM CI(int)” value came to 19 µL/min/mg.
For the molecule `Cc1cc(-c2nc(-c3cc(S(=O)(=O)NCC(C)(C)N4CCOCC4)ccc3C)cnc2N)ccn1` [Example 129.29, 3-(5-amino-6-(2-methylpyridin-4-yl)pyrazin-2-yl)-4-methyl-N-(2-methyl-2-morpholinopropyl)benzenesulfonamide], the IC50 was 5.4 µM at PI 3-kinase beta; 1.2 µM on PI 3-kinase delta; more than 9.1 µM on PI 4-kinase beta; more than 9.1 µM on Vps34; 0.14 µM at PI 3-kinase gamma; 0.69 µM at PI 3-kinase alpha. Further, the IC50 on mTOR turned out to be 6 µM. For the same molecule, in data set [1] (setting [2]), the “Assay M RLM CI(int)” value is more than 924 µL/min/mg.
Consider `Cc1ccc(S(=O)(=O)N2CCOCC2)cc1-c1cnc(N)c(C(=O)c2cccnc2)n1` [(ix), reference compound], for which the Assay M RLM CI(int) in data set [1] (setting [3]) stood at 267 µL/min/mg.
`Cc1cc(C)c(S(=O)(=O)NCC(C)(C)O)cc1-c1cnc(N)c(-n2cncn2)n1` [Example 121, 5-(5-Amino-6-(1H-1,2,4-triazol-1-yl)pyrazin-2-yl)-N-(2-hydroxy-2-methylpropyl)-2,4-dimethylbenzenesulfonamide]: the IC50 at PI 3-kinase beta was 1.2 µM; at PI 3-kinase delta, 0.96 µM; at PI 4-kinase beta, 0.51 µM; on Vps34 it was more than 10 µM; on PI 3-kinase gamma, 0.092 µM; on PI 3-kinase alpha, 0.12 µM. For the same molecule, at mTOR, the IC50 was determined as 5.2 µM. The “Assay M RLM CI(int)” value in data set [1] (setting [2]) came out at 31 µL/min/mg.
Take `COCCNS(=O)(=O)c1cccc(-c2cnc(N)c(C(=O)c3cccnc3)n2)c1` [(iv), reference compound]: the Assay M RLM CI(int) in data set [1] (setting [3]) amounted to 465 µL/min/mg.
On to `Cc1ncc(-c2nc(-c3cc(S(=O)(=O)NCC(F)(F)F)ccc3C)cnc2N)s1` [Example 45.5, 3-(5-Amino-6-(2-methylthiazol-5-yl)pyrazin-2-yl)-4-methyl-N-(2,2,2-trifluoroethyl)benzenesulfonamide], for which the IC50 on PI 4-kinase beta turned out to be 0.78 µM; on Vps34 it was 0.65 µM. In addition, the “Assay M RLM CI(int)” value in data set [1] (setting [2]) turned out to be 147 µL/min/mg.
In data set [1] (setting [3]), `Cc1ccc(S(=O)(=O)N2CCOCC2)cc1-c1cnc(N)c(C(=O)c2cccnc2)c1` [(i), reference compound] gave an Assay M RLM CI(int) of 47 µL/min/mg.
Regarding `COCCNS(=O)(=O)c1cc(-c2cnc(N)c(C(=O)c3cccnc3)n2)c(F)cc1F` [(vii), reference compound], the Assay M RLM CI(int) in data set [1] (setting [3]) amounted to 283 µL/min/mg.
Take `Cc1ncc(-c2nc(-c3cc(S(=O)(=O)N[C@@H]4CCOC4)ccc3C)cnc2N)s1` [Example 45.7a, (R)-3-(5-Amino-6-(2-methylthiazol-5-yl)pyrazin-2-yl)-4-methyl-N-(tetrahydrofuran-3-yl)benzenesulfonamide or (5)-3-(5-Amino-6-(2-methylthiazol-5-yl)pyrazin-2-yl)-4-methyl-N-(tetrahydrofuran-3-yl)benzenesulfonamide]: the “Assay M RLM CI(int)” value in data set [1] (setting [2]) worked out at 151 µL/min/mg.
Turning to `CNC(=O)c1nc(-c2ccc(Cl)c(S(=O)(=O)Nc3cccc(F)c3C)c2)cnc1N` [(xi), reference compound], in data set [1] (setting [3]), the Assay M RLM CI(int) was determined as 271 µL/min/mg.
In turn, `CN1CCN(S(=O)(=O)c2cccc(-c3cnc(N)c(C(=O)c4cccnc4)c3)c2)CC1` [(ii), reference compound] returned an Assay M RLM CI(int) in data set [1] (setting [3]) of 233 µL/min/mg.
The same measure, in the same setting: next, `COCCNS(=O)(=O)c1cc(-c2cnc(N)c(C(=O)c3cccnc3)n2)ccc1Cl` [(vi), reference compound]: 630 µL/min/mg; `CC(C)(C)c1ccc(C(=O)c2cc(-c3cccc(S(=O)(=O)NC4CC4)c3)cnc2N)cc1` [(iii), reference compound]: 219 µL/min/mg.
Consider `Cc1ncc(-c2nc(-c3cc(S(=O)(=O)NCC4CCOCC4)ccc3C)cnc2N)s1` [Example 45.2, 3-(5-Amino-6-(2-methylthiazol-5-yl)pyrazin-2-yl)-4-methyl-N-((tetrahydro-2H-pyran-4-yl)methyl)benzenesulfonamide], for which the IC50 at PI 3-kinase beta turned out to be 0.37 µM; on PI 3-kinase delta, 0.05 µM; at PI 4-kinase beta, 5.8 µM; at Vps34, 6 µM; on PI 3-kinase gamma, 0.018 µM; at PI 3-kinase alpha it was 0.04 µM. In addition, the “Assay M RLM CI(int)” value in data set [1] (setting [2]) is 194 µL/min/mg.
Regarding `Cc1ncc(-c2nc(-c3cc(S(=O)(=O)NCC4(C)COC4)ccc3C)cnc2N)s1` [Example 120, 3-(5-Amino-6-(2-methylthiazol-5-yl)pyrazin-2-yl)-4-methyl-N-((3-methyloxetan-3-yl)methyl)benzenesulfonamide], the concentration for half-maximal inhibition (IC50) at PI 3-kinase beta came out at 1 µM; on PI 3-kinase delta it was 0.06 µM; at PI 4-kinase beta it was 2.5 µM; at Vps34, 1.3 µM; on PI 3-kinase gamma, 0.004 µM; on PI 3-kinase alpha, 0.02 µM. The “Assay M RLM CI(int)” value in data set [1] (setting [2]) was found to be 95 µL/min/mg.
As for `CC[C@H](CO)NS(=O)(=O)c1ccc(C)c(-c2cnc(N)c(-c3ccnc(C)c3)n2)c1` [Example 129.7, (R)-3-(5-amino-6-(2-methylpyridin-4-yl)pyrazin-2-yl)-N-(1-hydroxybutan-2-yl)-4-methylbenzenesulfonamide], the IC50 on PI 3-kinase beta was more than 9.1 µM; on PI 3-kinase delta, 3.3 µM; on PI 4-kinase beta, more than 9.1 µM; on Vps34 it was more than 9.1 µM; on PI 3-kinase gamma, 0.27 µM; on PI 3-kinase alpha, 0.9 µM. Besides, the IC50 on mTOR came to 7.8 µM.
With `Cc1ccc(S(=O)(=O)NC(C)CO)cc1-c1cnc(N)c(-n2cncn2)n1` (centres unmarked) [Example 127.42], the concentration for half-maximal inhibition (IC50) on PI 3-kinase beta was 5.9 µM; on PI 3-kinase delta, more than 10 µM; at PI 4-kinase beta it was 7.1 µM; at Vps34, more than 10 µM; at PI 3-kinase gamma it was 0.8 µM; at PI 3-kinase alpha, 1.7 µM. Also, on mTOR, the IC50 was more than 10 µM.
Molecule `Cc1nc(N)ncc1-c1ccc(Cl)c(S(=O)(=O)NCCO)c1` [(xii), reference compound] yielded an Assay M RLM CI(int) in data set [1] (setting [3]) of 9 µL/min/mg.
In the case of `Cc1ncc(-c2nc(-c3cc(S(=O)(=O)NCCC(C)(C)O)ccc3C)cnc2N)o1` [Example 119.40], the IC50 at PI 3-kinase beta is 3.5 µM; at PI 3-kinase delta, 0.18 µM; at PI 4-kinase beta it was 6.2 µM; at Vps34, more than 10 µM; on PI 3-kinase gamma it was 0.023 µM; at PI 3-kinase alpha, 0.15 µM. The IC50 on mTOR was more than 10 µM.
With `Cc1ncc(-c2nc(-c3cc(S(=O)(=O)N[C@@H]4CCOC4)ccc3C)cnc2N)s1` [Example 45.7b, (R)-3-(5-Amino-6-(2-methylthiazol-5-yl)pyrazin-2-yl)-4-methyl-N-(tetrahydrofuran-3-yl)benzenesulfonamide or (5)-3-(5-Amino-6-(2-methylthiazol-5-yl)pyrazin-2-yl)-4-methyl-N-(tetrahydrofuran-3-yl)benzenesulfonamide], the “Assay M RLM CI(int)” value in data set [1] (setting [2]) came to 135 µL/min/mg.
Consider `Cc1ccc(S(=O)(=O)N[C@@H](C)CO)cc1-c1cnc(N)c(-n2cncn2)n1` [Example 127.41], for which the IC50 is 3.5 µM on PI 3-kinase beta; 6.6 µM at PI 3-kinase delta; 4.2 µM on PI 4-kinase beta; more than 10 µM on Vps34; 0.27 µM at PI 3-kinase gamma; 1.7 µM on PI 3-kinase alpha. For the same molecule, the IC50 at mTOR was more than 10 µM.
In the case of `Cc1ccc(S(=O)(=O)NCC2CCN(C)C2)cc1-c1cnc(N)c(-n2cncn2)n1` (centres unmarked) [Example 127.18], the IC50 is 2.4 µM on PI 3-kinase beta; 0.38 µM on PI 3-kinase delta; more than 10 µM at PI 4-kinase beta; more than 10 µM on Vps34; 1.3 µM on PI 3-kinase gamma; 1.9 µM on PI 3-kinase alpha. Moreover, the IC50 at mTOR was more than 10 µM.
